Where a name gives a salt, the structure may show the parent alone. Read-outs that look alike come from different tables or passages of the source. Marks after values point to notes of the source that are not given here.
How the values were obtained:
[1] = molecular target: T1, MAO-B (Rattus norvegicus, UniProt P19643); assay: Inhibition of MAO activity in vitro, PEA as substrate; type: biochemical; parameters: The MAO enzyme source was a homogenate of rat brain in 0.3M sucrose; from tissue; host or cells: rat brain homogenate, 600 g supernatant; conditions: MAO-B Inhibition In vitro IC50, rat brain homogenate
T1 sequence (P19643 1-520): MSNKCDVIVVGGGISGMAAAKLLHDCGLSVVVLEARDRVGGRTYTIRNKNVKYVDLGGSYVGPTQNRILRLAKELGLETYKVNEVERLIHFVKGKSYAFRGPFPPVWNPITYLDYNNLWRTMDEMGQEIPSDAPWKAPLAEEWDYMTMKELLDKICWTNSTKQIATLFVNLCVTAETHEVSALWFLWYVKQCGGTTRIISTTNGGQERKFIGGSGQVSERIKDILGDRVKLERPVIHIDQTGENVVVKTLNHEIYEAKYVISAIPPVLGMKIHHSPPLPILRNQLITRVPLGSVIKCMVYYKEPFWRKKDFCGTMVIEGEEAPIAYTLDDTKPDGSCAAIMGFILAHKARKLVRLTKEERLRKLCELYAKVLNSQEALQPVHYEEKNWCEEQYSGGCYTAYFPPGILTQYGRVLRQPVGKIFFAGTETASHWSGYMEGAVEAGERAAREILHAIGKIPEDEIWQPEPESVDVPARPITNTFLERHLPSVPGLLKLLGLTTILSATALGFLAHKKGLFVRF
Protocol: Substrate concentrations used were 50 μM (PEA) and 1 mM (5-HT).

[2] = molecular target: T2, Human erythrocyte acetylcholinesterase (Homo sapiens, UniProt P22303); assay: biochemical; type: biochemical; conditions: AChE Inhibition In vitro IC50
T2 construct: Human erythrocyte acetylcholinesterase (type XIII, Sigma Israel); purchased Sigma Israel type XIII; host or cells: human erythrocytes
T2 sequence (P22303 32-617 isoform P22303-2 limits assumed): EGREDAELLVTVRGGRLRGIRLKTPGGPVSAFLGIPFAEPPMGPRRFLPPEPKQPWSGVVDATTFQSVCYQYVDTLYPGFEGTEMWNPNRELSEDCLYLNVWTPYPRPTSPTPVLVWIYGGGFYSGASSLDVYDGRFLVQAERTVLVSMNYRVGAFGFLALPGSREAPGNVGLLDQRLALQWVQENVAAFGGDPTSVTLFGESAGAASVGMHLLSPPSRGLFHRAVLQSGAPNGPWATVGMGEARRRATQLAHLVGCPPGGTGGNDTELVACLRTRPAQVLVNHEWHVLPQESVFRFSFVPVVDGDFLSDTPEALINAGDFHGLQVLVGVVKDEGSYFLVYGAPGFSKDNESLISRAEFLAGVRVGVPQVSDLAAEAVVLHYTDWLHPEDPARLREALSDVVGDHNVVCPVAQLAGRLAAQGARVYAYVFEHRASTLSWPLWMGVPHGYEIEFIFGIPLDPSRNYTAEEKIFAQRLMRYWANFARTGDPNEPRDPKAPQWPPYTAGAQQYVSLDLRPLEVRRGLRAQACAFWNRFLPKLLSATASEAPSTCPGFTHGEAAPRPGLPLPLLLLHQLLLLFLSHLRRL
Outline: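 Erythrocyte AChE (type XIII) from 1 U/ml stock containing 1% Triton and 0.05% BSA in phosphate buffer pH 8; 0.05 U enzyme preincubated with 3-5 compound concentrations, triplicate, 15 to 60 minutes at 37° C. Percent inhibition calculated against drug-free enzyme.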

[3] = molecular target: T3, whole brain AChE (Mus musculus, UniProt P21836); conditions: for AChE Inhibition Ex vivo ED50 (AC): mice, whole brain, at peak of activity; for AChE Inhibition Time to peak activity t / AChE Inhibition Time to return to 50% of peak t: mouse, in vivo
T3 sequence (P21836 32-614): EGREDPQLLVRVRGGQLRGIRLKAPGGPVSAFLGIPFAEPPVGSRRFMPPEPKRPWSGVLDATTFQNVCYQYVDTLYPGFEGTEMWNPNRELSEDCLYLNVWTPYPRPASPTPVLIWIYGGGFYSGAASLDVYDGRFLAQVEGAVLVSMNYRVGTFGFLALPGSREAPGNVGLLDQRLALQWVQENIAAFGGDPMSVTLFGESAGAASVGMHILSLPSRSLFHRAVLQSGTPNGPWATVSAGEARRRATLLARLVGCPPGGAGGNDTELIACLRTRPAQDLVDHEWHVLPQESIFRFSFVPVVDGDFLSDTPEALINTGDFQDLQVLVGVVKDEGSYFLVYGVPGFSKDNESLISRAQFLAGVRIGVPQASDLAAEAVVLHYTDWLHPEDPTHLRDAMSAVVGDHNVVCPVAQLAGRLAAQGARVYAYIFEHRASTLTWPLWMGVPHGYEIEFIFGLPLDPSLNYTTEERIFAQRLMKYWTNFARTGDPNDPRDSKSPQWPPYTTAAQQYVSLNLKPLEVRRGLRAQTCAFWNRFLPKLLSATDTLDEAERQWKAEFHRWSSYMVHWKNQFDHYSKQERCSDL

[4] = system: Middle Cerebral Artery Occlusion (MCA-O) in Male Wistar Rats; conditions: rat, in vivo
[5] = system: Closed Head Injury (CHI) in Mice; assay: Closed Head Injury (CHI) in mice: motor function, neurological severity score (NSS); type: in vivo; conditions: difference from NSS at 1 hr
[6] = system: Middle Cerebral Artery Occlusion (MCA-O) in Male Wistar Rats
Protocol: Male Wistar rats (Olac England-Jerusalem) 300-400 g each were anesthetized with a solution of Equitesine administered i.p. at a dose of 3 ml/kg. Equitesine consists of 13.5 ml sodium pentothal solution (60 mg/ml), 3.5 g chloral hydrate, 1.75 g MgSO4, 33 ml propylene glycol, 8.3 ml absolute alcohol, made up to 83 ml with distilled water.
The dura matter was opened carefully using a 27 gauge needle The MCA was permanently occluded by microbipolar coagulation at low power setting, beginning 2-3 mm medial to the olfactory tract between its cortical branch to the rhinal cortex and the laterate striate arteries. After coagulation, the MCA was severed with microscissors and divided to ensure complete occlusion. Following this, the temporalis muscle was sutured and laid over the craniectomy site. The skin was closed with a running 3-0 silk suture. A sham craniectomy operation was performed on a parallel group of rats, but without cauterization of the MCA.
At 24 and 48 hours post surgery a neurological score was taken in order to assess the severity of the injury in the drug-treated rats with respect to their untreated controls.
Drugs were administered as an s.c. injection, according to the following schedule:
The scale runs from 0 (fully normal rats) to 13 (fully incapacitated rats). Most parameters are rated as either 0 (normal), or 1 (incapacitated) others are graded. […]

[7] = system: Closed Head Injury (CHI) in Mice; assay: Morris Water Maze Test after closed head injury (reference memory); conditions: retested daily for 2 weeks
Protocol: Morris Water Maze Test: the water maze consists of a circular aluminium pool, im in diameter and 60 cm in depth, filled with water to a depth of 17.5 cm. The hidden goal platform is a glass vessel (15 cm diameter×16.5 cm height) placed upside down at a fixed location in the pool, 1 cm below the surface of the water. The water temperature is maintained at 24° C. and the pool is always placed in the same position in the room to provide the same extra-maze cues. […] Commencing 24 hr after CHI, mice were retested daily for 2 weeks in 3 trials per day.

[8] = 6.5 mg/kg sc once 15 min after CHI
[9] = 15 mg/kg sc once 15 min after CHI
[10] = 46 mg/kg administered 60 min before CHl
[11] = 46 mg/kg sc once 15 min after CHI

SMILES	IC50 [1] [µM]	IC50 [2] [µM]	AChE Inhibition Ex vivo ED50 (AC) [3] [µmol/kg]	AChE Inhibition Time to peak activity t [3] [min]	AChE Inhibition Time to return to 50% of peak t [3] [min]	Volume infarction Mean ± SD [4] [mm*]	also measured
C#CCN(C)C1CCc2ccc(OC(=O)N(C)C)cc21 (stereo not shown) [Compound 29]	40	8.5	53.7	15	>60	–	–
CN(C)C(=O)Oc1ccc2c(c1)C(N)CC2 (stereo not shown) [Compound 1]	> 1000	–	5.0	30	>120	–	–
C#CCNC1CCc2ccc(OC(=O)N(C)C)cc21 (stereo not shown) [Compound 24, 6-(N,N-Dimethylcarbamyloxy)-N-propargyl aminoindan mesylate]	750	–	–	–	–	152 ± 45	ΔNSS, 24 hr post-CHl [5, 8]: 6.31 ± 0.23^m; ΔNSS, 7 days post-CHl [5, 8]: 8.67 ± 0.41^m; ΔNSS, 14 days post-CHl [5, 8]: 9.67 ± 0.66^m; ΔNSS (difference measured at 24 hours and 48 hours) ([6]; s.c. […] 15 minutes prior to MCA-O and 6.5 mg/kg 2 hours post MCA-O): 1.625
C#CCNC1CCc2cccc(OC(=O)N(C)C)c21 (stereo not shown) [Compound 27]	> 1000	5.72	30	15	>60	–	–
CCN(C)C(=O)Oc1ccc2c(c1)C(NC)CC2 (stereo not shown) [Compound 10]	–	–	34.7	60 to 90	>180	–	reduction in latency to find the platform, Morris Water Maze, compared to saline treated controls ([7]; 15 mg/kg, FIG. 1): Memory is enhanced; ΔNSS, 24 hr post-CHl [5, 9]: 5.36 ± 0.39; ΔNSS, 7 days post-CHl [5, 9]: 6.64 ± 0.41^m; ΔNSS, 14 days post-CHl [5, 9]: 6.73 ± 0.52
C#CCNC1CCc2ccc(OC(=O)N(C)CC)cc21 (stereo not shown) [Compound 25, 6-(N-Me, N-Etcarbamyloxy) N-propargyl aminoindan, HCl]	–	53	140.0	60	>180	189 ± 54	reduction in latency to find the platform, Morris Water Maze, compared to saline treated controls ([7]; 46 mg/kg, FIG. 2): Memory is enhanced; ΔNSS, 24 hr post-CHl [5, 10]: 4.90 ± 0.43; ΔNSS, 7 days post-CHl [5, 10]: 7.70 ± 0.33^m; ΔNSS, 14 days post-CHl [5, 10]: 8.80 ± 0.33^m; ΔNSS, 24 hr post-CHl [5, 11]: 5.00 ± 0.42; ΔNSS, 7 days post-CHl [5, 11]: 7.42 ± 0.62^m; ΔNSS, 14 days post-CHl [5, 11]: 9.01 ± 0.69^m; ΔNSS (difference measured at 24 hours and 48 hours) ([6]; s.c. 43 mg/kg 90 minutes prior to MCA-O and 30 mg/kg 3 hours post MCA-O): 1.78

From USRE39616E1, “Aminoindan derivatives” (priority 1996, dated 2007)
